The text below walks through data of ChEMBL document CHEMBL4177610, “Discovery of a novel 2,4-dimethylquinoline-6-carboxamide M4 positive allosteric modulator (PAM) chemotype via scaffold hopping” (Bioorg Med Chem Lett, 2017).

For data set [1], the target named is T1, Muscarinic acetylcholine receptor M4 (Rattus norvegicus, UniProt P08485).
T1 sequence (P08485 whole entry): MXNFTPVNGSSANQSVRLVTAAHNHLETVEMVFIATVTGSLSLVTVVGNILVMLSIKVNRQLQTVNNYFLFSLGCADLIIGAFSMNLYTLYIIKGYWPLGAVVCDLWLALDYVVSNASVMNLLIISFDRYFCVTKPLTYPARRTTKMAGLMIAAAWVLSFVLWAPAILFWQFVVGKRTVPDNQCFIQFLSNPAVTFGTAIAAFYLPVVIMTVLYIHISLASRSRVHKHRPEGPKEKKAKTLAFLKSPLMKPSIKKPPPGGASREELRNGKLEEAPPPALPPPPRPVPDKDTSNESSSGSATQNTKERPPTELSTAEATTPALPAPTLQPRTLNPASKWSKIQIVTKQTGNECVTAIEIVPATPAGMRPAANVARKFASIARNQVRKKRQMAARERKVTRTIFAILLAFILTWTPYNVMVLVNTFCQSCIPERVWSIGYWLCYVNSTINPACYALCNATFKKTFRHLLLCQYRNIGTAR
Briefly: (§1) Positive allosteric modulation of rat M4 receptor expressed in CHO cells co-expressing Gqi5 assessed as increase in acetylcholine-induced calcium mobilization. It is filed as functional, cell-based. Background: Calcium flux is commonly read through the fluorescence of an indicator in the cells.

For data set [2], the target named is T2, Muscarinic acetylcholine receptor M4 (Rattus norvegicus) (UniProt P08485).
T2 sequence (whole entry): T1 sequence (P08485 whole entry)
Briefly: Positive allosteric modulation of rat M4 receptor expressed in CHO cells co-expressing Gqi5 assessed as increase in acetylcholine-induced calcium mobilization relative to acetylcholine. It is filed as functional, cell-based.

The nature of data set [3]: Intrinsic clearance in rat liver microsomes. It is filed as ADME, microsome. The settings on record: read-out: CLH. A general note: Liver microsomes are vesicles of endoplasmic reticulum, rich in cytochrome P450 enzymes.
Data set [4] can be described thus: Intrinsic clearance in human liver microsomes. The note with it: read-out: CLH. The format is ADME, microsome.
Data set [5] in a line: Fraction unbound in rat plasma. The format is ADME, cell-free.
Data set [6] can be described thus: Fraction unbound in human plasma. The format is ADME, cell-free.
Data set [7] is described as follows: Fraction unbound in rat brain. The format is ADME, tissue-based.
Data set [8] can be described thus: Brain to plasma partition coefficient, Kp of the compound in Sprague-Dawley rat at 0.2 mg/kg, iv measured after 0.25 hrs. It is filed as ADME, organism-based. The settings on record: brain and plasma.
The nature of data set [9]: Ratio of unbound brain to plasma concentration in Sprague-Dawley rat at 0.2 mg/kg, iv measured after 0.25 hrs. It is filed as ADME, organism-based. The note with it: brain and plasma, read-out: K(p,uu,brain).
Data set [10] has as its target T2, Muscarinic acetylcholine receptor M4 (Rattus norvegicus). The data set is described as §1. The format is functional, cell-based.

Calls of active or inactive are those of the source. The calls are words filed in the database; no cut-off is given here. A value given as a limit tells only on which side of the number the result lay.

In general, EC50 refers to the concentration needed to bring the measured effect to its halfway point. For the compound `Cc1cc(C)c2cc(C(=O)NC3CN(c4ccnc(C(F)(F)F)c4)C3)ccc2n1`, in [1] (read-out: EC50), the 50% effective concentration (EC50) amounted to 820 nM. Besides, the %max in [2] turned out to be 61%.

For the compound `Cc1cc(C)c2cc(C(=O)NC3CN(c4cccc(Cl)n4)C3)ccc2n1`, in data set [1] (read-out: EC50), the EC50 was determined as 440 nM. For the same compound, the %max in [2] was found to be 77%.

Turning to `COc1ccc(CNC(=O)c2ccc3nc(C)cc(C)c3c2)cc1F`, the EC50 in [1] (read-out: EC50) is more than 10000 nM. Further, in data set [2], the %max turned out to be 63%.

As for `Cc1cc(C)c2cc(C(=O)NC3CN(c4ncc(Cl)cc4Cl)C3)ccc2n1`, the EC50 in data set [1] (read-out: EC50) came out at 587 nM. In addition, the %max in [2] amounted to 70%.

The fraction unbound is free concentration divided by total concentration. A high value points to weak binding. As usually defined, the Kp is the ratio of the level in a tissue or fluid to that in plasma or blood. As to `Cc1cc(C)c2cc(C(=O)NC3CN(c4cc(Cl)ncc4Cl)C3)ccc2n1`, the EC50 in [1] (read-out: EC50) stood at 307 nM. For the same compound, in data set [2], the %max came to 57%. Further, the results for the CLint scaled in data set [3] and in data set [4] were 295 mL/min/kg and 160 mL/min/kg, respectively. In addition, the results for the fraction unbound in [5], in data set [6] and in data set [7] were 0.002, 0.002 and 0.006, respectively. For the same compound, the concentration ratio (Kp) at 0.25 h in [8] was 0.1. For the same compound, in data set [9], the Kp uu at 0.25 h was found to be 0.3.

Take `COc1ccc(C)c2sc(NC(=O)c3ccncc3)nc12`: in data set [1] (read-out: EC50), the EC50 stood at 225 nM.

For the compound `Cc1cc(C)c2cc(C(=O)NC3CN(c4ccc(C(F)(F)F)nc4)C3)ccc2n1`, the EC50 in data set [1] (read-out: EC50) is 449 nM. Besides, in data set [2], the %max was 85%. For the same compound, the CLint scaled in data set [3] is 94 mL/min/kg; in data set [4], 36 mL/min/kg. Also, the results for the fraction unbound in data set [5], in [6] and in data set [7] were 0.004, 0.005 and 0.016, respectively. For the same compound, in data set [8], the Kp at 0.25 h was 0.05. Also, in data set [9], the Kp uu at 0.25 h turned out to be 0.2.

As for `COc1nc2sc(C(=O)NC3CC3)c(N)c2c(C)c1Cl`, the EC50 in data set [1] (read-out: EC50) amounted to 225 nM.

Consider `Cc1cc(C)c2cc(C(=O)NC3CN(c4ccc(OC(F)F)nc4)C3)ccc2n1`, for which the pEC50 result in [10] is “inactive”. The EC50 entry in [1] (cho) was “Not Active”. In addition, the %max in [2] is 43%.

On to `COc1ccc(CNC(=O)c2sc3nnc(C)c(C)c3c2N)cc1F`, for which the EC50 in data set [1] (read-out: EC50) stood at 225 nM.

Consider `Cc1cc(C)c2cc(C(=O)NC3CN(c4ccc(Cl)cn4)C3)ccc2n1`, for which the EC50 in data set [1] (read-out: EC50) came to 967 nM. Moreover, the %max in [2] came to 84%.

As to `Cc1cc(C)c2cc(C(=O)NC3CN(c4ccc(F)c(F)c4)C3)ccc2n1`, the EC50 in data set [1] (read-out: EC50) was 856 nM. The %max in [2] turned out to be 55%.

Regarding `Cc1cc(C)c2cc(C(=O)NC3CN(c4cnc(C(F)(F)F)cn4)C3)ccc2n1`, the EC50 in [1] (read-out: EC50) stood at 1160 nM. In [2], the %max is 75%.

Consider `Cc1cc(C)c2cc(C(=O)NC3CN(c4ccnc(OC(F)F)c4)C3)ccc2n1`, for which the EC50 in data set [1] (read-out: EC50) amounted to 1130 nM. For the same compound, the %max in data set [2] came to 86%.

As to `Cc1cc(N2CC(NC(=O)c3ccc4nc(C)cc(C)c4c3)C2)cc(OC(F)F)n1`, in data set [1] (read-out: EC50), the EC50 stood at 1060 nM. Besides, the %max in [2] came to 71%.

As for `Cc1cc(C)c2cc(C(=O)NC3CN(c4ncc(OC(C)C)cn4)C3)ccc2n1`, the EC50 in data set [1] (read-out: EC50) was determined as 6140 nM. Also, the %max in data set [2] came out at 73%.

Consider `Cc1cc(C)c2cc(C(=O)NC3CN(c4ccc(C(F)(F)F)cn4)C3)ccc2n1`, for which the EC50 in data set [1] (read-out: EC50) came out at 1080 nM. Besides, the %max in data set [2] came out at 77%.

With `Cc1cc(C)c2cc(C(=O)NC3CN(c4ncc(Cl)cc4F)C3)ccc2n1`, the EC50 in [1] (read-out: EC50) stood at 453 nM. The %max in [2] stood at 82%.

`Cc1cc(C)c2cc(C(=O)NC3CN(c4ncc(C(F)(F)F)cn4)C3)ccc2n1`: the EC50 in data set [1] (read-out: EC50) came to 3910 nM. Also, the %max in data set [2] was 66%.

For `Cc1cc(C)c2cc(C(=O)NC3CN(c4ncc(F)cc4Cl)C3)ccc2n1`, in data set [1] (read-out: EC50), the EC50 is 401 nM. Besides, the %max in data set [2] was found to be 72%.

For `Cc1cc(C)c2cc(C(=O)NC3CN(c4cc(Cl)nc(Cl)c4)C3)ccc2n1`, in [1] (read-out: EC50), the EC50 is 225 nM. Moreover, the %max in data set [2] amounted to 44%.

For the compound `Cc1ccc(OC2CCN(c3ncnc4ccc(F)cc34)CC2)cn1`, in data set [1] (read-out: EC50), the EC50 is 225 nM.

On to `Cc1cc(C)c2cc(C(=O)NC3CN(c4cnc(C5CC5)cn4)C3)ccc2n1`, for which, in data set [1] (read-out: EC50), the EC50 stood at 1070 nM. Also, the %max in [2] amounted to 82%.

`Cc1cc(C)c2cc(C(=O)N3CCCC3)ccc2n1`: the pEC50 entry in data set [10] was “inactive”. For the same compound, the EC50 entry in [1] (cho) is recorded as “Not Active”. Further, the %max in data set [2] amounted to 18.3%.

For `COc1cc(N2CC(NC(=O)c3ccc4nc(C)cc(C)c4c3)C2)c(Cl)cn1`, in [1] (read-out: EC50), the EC50 was found to be 383 nM. In addition, the %max in [2] worked out at 62%. Further, the CLint scaled in data set [3] was 178 mL/min/kg; in data set [4], 106 mL/min/kg. Besides, the values for the fraction unbound in data set [5], in [6] and in data set [7] were 0.002, 0.002 and 0.008, respectively. The Kp at 0.25 h in data set [8] was found to be 0.84. Also, in data set [9], the Kp uu at 0.25 h was found to be 3.36.

As to `Cc1cc(C)c2cc(C(=O)NC3CN(c4ccnc(F)c4F)C3)ccc2n1`, the EC50 in data set [1] (read-out: EC50) came out at 332 nM. In addition, the %max in data set [2] is 82%. Besides, the results for the CLint scaled in data set [3] and in data set [4] were 232 mL/min/kg and 129 mL/min/kg, respectively. In addition, the fraction unbound amounted to 0.013 in data set [5], 0.009 in [6] and 0.023 in data set [7]. In addition, the concentration ratio (Kp) at 0.25 h in data set [8] was determined as 0.17. In [9], the Kp uu at 0.25 h is 0.3.

With `Cc1cc(C)c2cc(C(=O)NC3CN(c4ncccc4Cl)C3)ccc2n1`, the EC50 in data set [1] (read-out: EC50) is 935 nM. Moreover, in [2], the %max worked out at 82%.

As for `Cc1cc(C)c2cc(C(=O)NC3CN(c4ncc(F)cn4)C3)ccc2n1`, in [1] (read-out: EC50), the EC50 was more than 10000 nM. Also, the %max in [2] was 61%.
